Results published in patent publication US20140193827A1 (TEVA PHARMACEUTICAL INDUSTRIES, LTD., priority 2013, published 2014).

Test system: GA-primed murine splenocytes
Assay: Tolerance method for assessing process variability
[1] = microarray, splenocytes activated 24 hours

For glatiramer acetate [GA], the “AVG expression of SH3RF1, probe ILMN_2602597” value [1] was 7.302, the “AVG expression of SLC25A1, probe ILMN_2619846” value [1] was 8.032 and the “AVG expression of SLCO3A1, probe ILMN_2663230” value [1] was 8.007. The “AVG expression of SMOX, probe ILMN_2597030” value [1] was 8.19, the “AVG expression of SPN, probe ILMN_2574982” value [1] was 6.823 and the “AVG expression of STK4, probe ILMN_3004142” value [1] was 11.07. The “AVG expression of TARDBP, probe ILMN_3093089” value [1] was 8.366, the “AVG expression of TBCD, probe ILMN_2891506” value [1] was 9.516 and the “AVG expression of TNF, probe ILMN_2899863” value [1] was 8.846. The “AVG expression of TNFAIP3, probe ILMN_1252202” value [1] was 9.205, the “AVG expression of TNIP1, probe ILMN_2417863” value [1] was 10.34 and the “AVG expression of UBAC2, probe ILMN_2484838” value [1] was 8.614. The “AVG expression of UBAC2, probe ILMN_2949605” value [1] was 10.08, the “AVG expression of UBE2L6, probe ILMN_2431619” value [1] was 8.561 and the “AVG expression of UCHL5, probe ILMN_1240153” value [1] was 8.74. The “AVG expression of VAMP4, probe ILMN_2516348” value [1] was 8.312, the “AVG expression of WDR68, probe ILMN_2546073” value [1] was 7.546 and the “AVG expression of ZBP1, probe ILMN_1228653” value [1] was 7.444. For the same substance, the “AVG expression CCND2” value (probe IIMN_2700166) was 11.38, the “AVG expression RFTN2” value (probe ILMN_1212653) was 7.109 and the “AVG expression ZFP318” value (probe ILMN_1212982) was 9.704. The “AVG expression TXNIP” value (probe ILMN_1213609) was 11.89, the “AVG expression SGK1” value (probe ILMN_1213954) was 9.667 and the “AVG expression IFITM1” value (probe ILMN_1214071) was 11.55. For the same substance, the “AVG expression SNX29” value (probe ILMN_1214294) was 7.713, the “AVG expression A530050E01RIK” value (probe ILMN_1214783) was 7.616 and the “AVG expression IL24” value (probe ILMN_1214841) was 7.762. The “AVG expression HSD11B1” value (probe ILMN_1214998) was 8.421, the “AVG expression LOC100046608” value (probe ILMN_1215796) was 7.035 and the “AVG expression CXCL9” value (probe ILMN_1215862) was 9.757. The “AVG expression APOE” value (probe ILMN_1216042) was 7.5268, the “AVG expression STIM1” value (probe ILMN_1216313) was 8.348 and the “AVG expression TPCN1” value (probe ILMN_1217102) was 8.543. For the same substance, the “AVG expression IFITM1” value (probe ILMN_1217180) was 11.85, the “AVG expression PKIB” value (probe ILMN_1217389) was 11.19 and the “AVG expression PRKACB” value (probe ILMN_1217408) was 11.88. The “AVG expression ITGAE” value (probe ILMN_1217629) was 7.553, the “AVG expression STAU2” value (probe ILMN_1217723) was 8.737 and the “AVG expression ITK” value (probe ILMN_1217899) was 7.055. For the same substance, the “AVG expression D230007K08RIK” value (probe ILMN_1217913) was 9.225, the “AVG expression SCO1” value (probe ILMN_1218036) was 9.072 and the “AVG expression TMIE” value (probe ILMN_1218037) was 8.752. For the same substance, the “AVG expression IFITM6” value (probe ILMN_1218181) was 6.28, the “AVG expression CD69” value (probe ILMN_1218240) was 11.83 and the “AVG expression IL18R1” value (probe ILMN_1218525) was 7.946. The “AVG expression A630054M16RIK” value (probe ILMN_1218533) was 8.828, the “AVG expression LOC385615” value (probe ILMN_1218717) was 8.213 and the “AVG expression EMB” value (probe ILMN_1218799) was 9.501. For the same substance, the “AVG expression 5031436O03RIK” value (probe ILMN_1219017) was 7.811, the “AVG expression LTK” value (probe ILMN_1219860) was 7.398 and the “AVG expression LOC623121” value (probe ILMN_1219896) was 9.039. For the same substance, the “AVG expression EBI2” value (probe ILMN_1220101) was 11.29, the “AVG expression CTSG” value (probe ILMN_1220236) was 7.594 and the “AVG expression TTC28” value (probe ILMN_1220397) was 7.127. The “AVG expression GM590” value (probe ILMN_1220788) was 8.022, the “AVG expression PSAT1” value (probe ILMN_1221048) was 10.49 and the “AVG expression TTYH3” value (probe ILMN_1221311) was 7.858. The “AVG expression LOC100048841” value (probe ILMN_1221516) was 7.303, the “AVG expression ADCY7” value (probe ILMN_1221530) was 8.272 and the “AVG expression ELA2” value (probe ILMN_1221700) was 6.367. The “AVG expression FCGRT” value (probe ILMN_1221819) was 8.525, the “AVG expression FAIM3” value (probe ILMN_1221820) was 13.69 and the “AVG expression PAQR7” value (probe ILMN_1222036) was 6.448. The “AVG expression UGT1A10” value (probe ILMN_1222543) was 6.383, the “AVG expression ROGDI” value (probe ILMN_1222821) was 8.291 and the “AVG expression INDO” value (probe ILMN_1223600) was 7.297. For the same substance, the “AVG expression SMPDL3A” value (probe ILMN_1224116) was 7.588, the “AVG expression SPSB1” value (probe ILMN_1224336) was 8.95 and the “AVG expression LOC380797” value (probe ILMN_1224473) was 8.096. The “AVG expression E130113K22RIK” value (probe ILMN_1224945) was 7.685, the “AVG expression PRKCB” value (probe ILMN_1225085) was 11.14 and the “AVG expression 4930519L02RIK” value (probe ILMN_1225132) was 7.525. For the same substance, the “AVG expression CDKN2D” value (probe ILMN_1225214) was 8.24, the “AVG expression FDPS” value (probe ILMN_1225730) was 12.65 and the “AVG expression MFSD2” value (probe ILMN_1225764) was 8.49. The “AVG expression GAB3” value (probe ILMN_1226514) was 7.563, the “AVG expression E030007N04RIK” value (probe ILMN_1226755) was 8.626 and the “AVG expression MAN2A2” value (probe ILMN_1226901) was 6.871. The “AVG expression D9ERTD392E” value (probe ILMN_1227277) was 9.413, the “AVG expression ITGB7” value (probe ILMN_1227434) was 9.885 and the “AVG expression LOC386545” value (probe ILMN_1227570) was 8.23. The “AVG expression IL12RB1” value (probe ILMN_1227900) was 8.071, the “AVG expression GMFG” value (probe ILMN_1227907) was 10.95 and the “AVG expression IFI30” value (probe ILMN_1228213) was 12.19. The “AVG expression A430106G13RIK” value (probe ILMN_1228804) was 6.595, the “AVG expression NGP” value (probe ILMN_1228832) was 8.125 and the “AVG expression C330023M02RIK” value (probe ILMN_1228917) was 9.763.
